According to PubChem BioAssay AID1508612:

Test: passive permeability, PAMPA, ADME assay (AID 1508612)
Conditions: pH 7.4, 30.0 min, 50.0 µM

Compound | Papp [×10⁻⁶ cm/s]
COC(=O)c1ccc2c(C(=Nc3ccc(N(C)C(=O)CN4CCN(C)CC4)cc3)c3ccccc3)c(O)[nH]c2c1 | 12.5
NC(=O)C1CCN(c2nccc(-c3ccc4c(c3)OCCCO4)n2)CC1 | 653
COc1ccc(-c2c(-c3cc(C(=O)O)ccn3)ncn2C)cc1 | 3.06
Fc1cc(Nc2nc(-c3ccncc3)nc3ccccc23)ccc1-c1ccc(F)c(F)c1F | 57.5
CC(C)c1ccc(S(=O)(=O)c2cnc(SCC(=O)Nc3ccc4c(c3)OCCO4)[nH]c2=O)cc1 | 1.84
CCOc1ccc(C(C)CNC(=O)c2cc3sccc3n2Cc2ccccc2)cc1OCC (stereo unspecified) | > 1000
c1ccc(-c2nnc3n2NC(c2ccc4c(c2)OCO4)S3)cc1 (stereo unspecified) | 607
CC(C)(N)C(=O)N[C@H](COCc1ccccc1)C(=O)N1CCC2(CC1)CN(S(C)(=O)=O)c1ccccc12 | 819
c1cc(OCCN2CCCCC2)cc(-c2n[nH]c3ccc(-c4ncn[nH]4)cc23)c1 | < 1
Cc1cc(NS(=O)(=O)c2ccc(NCCc3ccc(Cl)c(Cl)c3)cc2)no1 | 406
O=C1c2ccccc2C2=Nc3ccccc3SC(c3ccc(Cl)cc3)C12 (stereo unspecified) | < 1
COc1ccc(-c2nc(CS(=O)CC(=O)N3CCC4(CC3)OCCO4)c(C)o2)cc1 (stereo unspecified) | 91.7
COc1cccc(-c2nc(-c3cc4cc(OC)ccc4[nH]c3=O)no2)c1 | > 1000
O=C(O)c1ccccc1C(=O)Nc1ccc(-c2ccccc2)cc1 | 3.49
COc1ccc(-c2ccc3ncc4c(c3c2)n(-c2ccc(N3CCNCC3)c(C(F)(F)F)c2)c(=O)n4C)cn1 | < 1
COc1ccc(CNC(=O)CCCn2nc(C)c3c(C)n(-c4ccc(C)cc4)nc3c2=O)cc1OC | 235
CN(C)c1cccc(-c2cnc(N3CCC(C(N)=O)CC3)nc2)c1 | 273
CC(C)NC(=O)N1C[C@@H]2C[C@H](C1)c1ccc(-c3cccc(C(F)(F)F)c3)c(=O)n1C2 | 189
CCOc1ccc(-c2nnc(SCC(=O)NCc3ccccc3Cl)o2)cc1 | 5.1
Nc1ncc(S(=O)(=O)N2CCOCC2)s1 | 15.5
COc1ccc(-n2nc(C3CCCN(C(=O)Cc4ccc(F)cc4)C3)[nH]c2=O)cc1 (stereo unspecified) | 851
O=C(O)c1ccc(O)c2ncc(N3CCCN(CCc4cccc5ccccc45)CC3)cc12 | 974
Cc1ccc(NC(=O)Nc2cc3c(cc2N2CCCCC2)n(C)c(=O)n3C)cc1Cl | 8
COc1cccc(CNc2ccc(S(=O)(=O)Nc3nccs3)cc2)c1N | 28.8

Compound | Papp [×10⁻⁶ cm/s]
O=C(NC1CC1)c1nc(-c2cccnc2)c2cnccn12 | 31.8
CN[C@@H](C)C(=O)N[C@@H]1C(=O)N(Cc2c(C)ccc3ccccc23)c2ccc(C#N)cc2N(C(C)=O)[C@H]1C | 551
Cc1cnc(-c2ccccc2C(F)F)nc1NCc1ccc(-n2ccnn2)cc1 | > 1000
COc1ccc2[nH]c3c(c2c1)CCNC31CCN(S(=O)(=O)c2c(C)noc2C)CC1 | 79
O=C(Nc1ccc(OC(F)(F)Cl)cc1)c1cnc(N2CC[C@@H](O)C2)c(-c2ccn[nH]2)c1 | 14.6
Cc1ccc(Cl)cc1NS(=O)(=O)c1cc2c(cc1F)NC(=O)CC2 | 581
CN1CCN(C(=O)Cc2c[nH]c3ncc(-c4ccccc4Oc4ccccc4)cc23)CC1 | > 1000
Cn1c(=O)c2c(nc(Cl)n2Cc2ccc(Cl)cc2)n(C)c1=O | > 1000
COc1cccc(CN2CCCC(c3nc(-c4ccncc4)ncc3-c3ccccc3)C2)c1O (stereo unspecified) | > 1000
CCOc1ccc(CCNC(=O)c2ccnn2Cc2cccc(C)c2)cc1OCC | > 1000
Cc1ncc2c(c1CNC(=O)Cn1cnc3ccccc3c1=O)CCNC2 | 59.6
Cc1cc(CNC(=O)c2ccc3c(c2)n(CC2CC2)c(=O)n3C2CCCCC2)on1 | 964
COc1ccc(C)cc1NC(=O)c1cnc(-c2ccc(F)cc2)nc1-c1ccncc1 | 130
Cn1cncc1[C@@](N)(c1ccc(Cl)cc1)c1ccc2c(c1)c(-c1cccc(Cl)c1)cc(=O)n2C | > 1000
Fc1cccc(F)c1Nc1nc(-c2ccncc2)nc2ccccc12 | > 1000
Cc1ccnc(NC(=S)N2CCC(c3cccc(C(F)(F)F)c3)CC2)c1 | 672
COc1ccc(-n2nc(C3CCN(C(=O)C4CC4)CC3)[nH]c2=O)cc1 | 148
Cc1cnc(-c2ccccc2C(F)F)nc1NCC1CN(c2cnccn2)C1 | > 1000
C[S+](=O)([O-])c1ccc(-c2nc(C(=O)N3CCOCC3)n3ccccc23)cc1 | 180
CC[C@@]1(O)C(=O)OCc2c1cc1n(c2=O)Cc2c-1nc1cc(F)c(C)c3c1c2[C@@H](N)CC3 | 370
Cc1nc([C@](C)(O)CO)sc1-c1cnc(N)c(O[C@H](C)c2cc(F)ccc2-n2nccn2)c1 | 414
CCOc1ccc(CNC(=O)CCCn2nc(C)c3c(C)n(-c4ccc(C)cc4)nc3c2=O)cc1 | 843
O=[S+]([O-])(Nc1ccccc1)c1ccc(NCc2cccc(C(F)(F)F)c2F)cc1 | 306
COc1ccc2[nH]cc(CCNC(=O)c3cnn(-c4ccc(C)cc4)c3C3CCN(C(=O)OC(C)(C)C)CC3)c2c1 | 153

Compound | Papp [×10⁻⁶ cm/s]
CCC(CC)(NC(=O)C(C)C)C(=O)N[C@@H](CCCN=C(N)N)C(=O)NC1(C(=O)NC(c2ccc(F)cc2)c2ccc(F)cc2)CCCC1 | 8
COc1ccc(CCN2C(=O)N(c3ccc(F)cc3)C(=O)C2CC(=O)Nc2ccc(F)c(F)c2)cc1 (stereo unspecified) | 719
O=C(Nc1ccccc1)C1CC(=O)N(c2n[nH]c3cc(Br)ccc23)C1 (stereo unspecified) | 1.1
CC(=O)Nc1nc(-c2ccc3c(c2)CCN3C(=O)c2ccccc2C)c(C)s1 | > 1000
CCOc1ccccc1N(CC(=O)Nc1cc(OC)ccc1OC)S(=O)(=O)c1ccccc1 | 968
C[S+](=O)([O-])c1ccc(-c2nc(C(=O)N3CCOCC3)n3ccncc23)cc1 | 8.31
COc1ccc(-n2nc(C3CCCN(C(=O)Cc4ccccn4)C3)[nH]c2=O)cc1 (stereo unspecified) | 106
C[C@@H](c1ccc2nccn2c1)n1nnc2ncc(-c3cnn(C)c3)nc21 | 40.7
O=C(Nc1ccc(Cl)c(S(=O)(=O)N2CCOCC2)c1)c1ccc(S(=O)(=O)N2CCOCC2)cc1 | 936
CCc1c(C)nc2c(-c3cnn(-c4cc(CO)ccn4)c3)c[nH]n2c1=O | 1.62
O=C(O)Cn1c(C(=O)Nc2nc(-c3ccccc3Cl)cs2)cc2ccccc21 | 21.5
O=S(=O)(Nc1cccc(C(F)(F)F)c1)c1ccc(NS(=O)(=O)c2ccc3c(c2)OCCO3)cc1 | 668
Cc1ccc(NS(=O)(=O)c2ccc3c(c2)NC(=O)CO3)cc1C | 706
Cc1cc(NC(=S)N2CCN(c3cccc(C(F)(F)F)c3)CC2)nc2ccccc12 | 31.5
COc1ccc(C2=Nn3c(nnc3-c3ccncc3)SC2)cc1 | 244
CCCCCn1c(=O)[nH]c2cc(C(=O)NCCCN3CCC(C)CC3)ccc2c1=O | 91.7
O=C(NCc1ccc(N2CCCC2)nc1)c1cc(Cl)ccc1O | > 1000
CCC(Sc1nc2ccccc2c2nc(CCc3c(C)n[nH]c3C)nn12)C(=O)Nc1ccc(F)cc1 (stereo unspecified) | 37.9
COc1ccc(S(=O)(=O)N(C(=O)C(C)C)c2ccc3oc(=O)sc3c2)cc1 | 658
O=C(c1ccc2ncccc2c1)N1CCc2c(nc3cc[nH]n3c2=O)C1 | 101
CC(=O)OCCN1C(=O)c2c(C)nc3ccc(S(=O)(=O)N4CCOCC4)cc3c2C1=O | 665
O=C(CCCN1CCC2(CC1)C(=O)N(Cc1cccc(F)c1)CN2c1ccccc1)c1ccc(F)cc1 | 21
CCC(CC)C(=O)NC[C@@H]1C=C(C)[C@H](Cc2nc3c(C)cccc3[nH]2)C[C@H]1C(C)C | > 1000
